Among the data in patent publication US8586739B2, “Heterocyclic compounds and their uses” (Amgen Inc., priority 2007, dated 2013) are IC50 values, retold here.

The test system of this assay is human B cells. Briefly: Human B cells proliferation stimulated by anti-IgM (3H thymidine). The following applies: Homo sapiens, B-cell, 72 h, purified human B cells, anti-Human IgM + CD40L-LZ. Format: cell-based. On the procedure: Human B Cells Proliferation stimulate by anti-IgM
Isolate PBMCs from Leukopac or from human fresh blood. Isolate human B cells by using Miltenyi protocol and B cell isolation kit II.—human B cells were Purified by using autoMACS® column.
Activation of Human B Cells
Use 96 well Flat bottom plate, plate 50000/well purified B cells in B cell proffer-ation medium (DMEM+5% FCS, 10 mM Hepes, 50 μM 2-mercaptoethanol); 150 μL medium contain 250 ng/mL CD40L-LZ recombinant protein (Amgen) and 2 μg/mL anti-Human IgM antibody (Jackson ImmunoReseach Lab.#109-006-129), mixed with 50 μL B cell medium containing PI3K inhibitors and incubate 72 h at 37° C. incubator. After 72 h, pulse labeling B cells with 0.5-1 uCi/well ^3H thymidine for overnight ˜18 h, and harvest cell using TOM harvester.

As a reminder, the IC50 is the concentration that gives 50% inhibition. With `CC(C)c1ccncc1-c1nc2c(Cl)cccc2cc1CNc1ncnc2[nH]cnc12` [N-((8-chloro-2-(4-(1-methylethyl)-3-pyridinyl)-3-quinolinyl)methyl)-9H-purin-6-amine], the half-maximal inhibitory concentration (IC50) worked out at 25.8 nM.

Consider `C[C@H](Nc1ncnc2[nH]cnc12)c1cc2ccccc2nc1-c1ccccn1` [N-((1S)-1-(2-(2-pyridinyl)-3-quinolinyl)ethyl)-9H-purin-6-amine], for which the half-maximal inhibitory concentration (IC50) worked out at 5.6 nM.

Turning to `C[C@H](Nc1ncnc2[nH]cnc12)c1cc2ccc(F)cc2nc1-c1cccc(S(C)(=O)=O)c1` [N-((1S)-1-(7-fluoro-2-(3-(methylsulfonyl)phenyl)-3-quinolinyl)ethyl)-9H-purin-6-amine], the IC50 came out at 148 nM.

As for `C[C@H](Nc1ncnc2[nH]cnc12)c1cc2ccc(F)cc2nc1-c1cc(F)cc(F)c1` [N-((1S)-1-(2-(3,5-difluorophenyl)-7-fluoro-3-quinolinyl)ethyl)-9H-purin-6-amine], the IC50 amounted to 5.15 nM.

With `COc1nc(-c2nc3c(Cl)cccc3cc2[C@H](C)Nc2ncnc3[nH]cnc23)cs1` [N-((1S)-1-(8-chloro-2-(2-methoxy-1,3-thiazol-4-yl)-3-quinolinyl)ethyl)-9H-purin-6-amine], the half-inhibitory concentration (IC50) came out at 17.5 nM.

Regarding `Clc1cccc2cc(CNc3ncnc4[nH]cnc34)c(-c3cccs3)nc12` [N-((8-chloro-2-(2-thiophenyl)-3-quinolinyl)methyl)-9H-purin-6-amine], the IC50 is 104 nM.

With `C[C@H](Nc1ncnc2[nH]cnc12)c1cc2cccc(Cl)c2nc1-c1cncs1` [N-((S)-1-(8-Chloro-2-(thiazol-5-yl)quinolin-3-yl)ethyl)-9H-purin-6-amine], the IC50 came to 21.9 nM.

Regarding `Nc1nc(NCc2cc3cccc(Cl)c3nc2-c2ccccc2Cl)c2nc[nH]c2n1` [N6-((8-chloro-2-(2-chlorophenyl)-3-quinolinyl)methyl)-9H-purine-2,6-diamine], the half-maximal inhibitory concentration (IC50) was 8.9 nM.

As for `OC1CCCN(c2nc3c(Cl)cccc3cc2CNc2ncnc3[nH]cnc23)C1` (centres unmarked) [1-(8-chloro-3-((9H-purin-6-ylamino)methyl)-2-quinolinyl)-3-piperidinol], the 50% inhibitory concentration (IC50) turned out to be 98.8 nM.

In the case of `OCC[C@H](Nc1ncnc2[nH]cnc12)c1cc2cccc(Cl)c2nc1-c1ccccc1Cl` [(3S)-3-(8-chloro-2-(2-chlorophenyl)-3-quinolinyl)-3-(9H-purin-6-ylamino)-1-propanol], the 50% inhibitory concentration (IC50) was 13.1 nM.

For `C[C@H](Nc1ncnc2[nH]cnc12)c1nc2cccc(Cl)c2nc1-c1cc(F)ccc1Cl` [N-((1S)-1-(5-chloro-3-(2-chloro-5-fluorophenyl)-2-quinoxalinyl)ethyl)-9H-purin-6-amine], the half-inhibitory concentration (IC50) was 89.3 nM.

Take `Clc1cccc(-c2nc3c(Cl)cccc3cc2CNc2ncnc3[nH]cnc23)c1` [N-((8-chloro-2-(3-chlorophenyl)-3-quinolinyl)methyl)-9H-purin-6-amine]: the IC50 turned out to be 411 nM.

With `Clc1cccc2cc(CNc3ncnc4[nH]cnc34)c(-c3ccns3)nc12` [N-((8-chloro-2-(5-isothiazolyl)-3-quinolinyl)methyl)-9H-purin-6-amine], the half-maximal inhibitory concentration (IC50) came out at 65.6 nM.

Take `C[C@H](Nc1nc(F)nc2[nH]cnc12)c1cc2cccc(Cl)c2nc1-c1ccccn1` [N-((1S)-1-(8-chloro-2-(2-pyridinyl)-3-quinolinyl)ethyl)-2-fluoro-9H-purin-6-amine]: the half-inhibitory concentration (IC50) amounted to 14 nM.

With `C[C@H](Nc1ncnc2[nH]cnc12)c1nc2cccc(C(F)(F)F)c2nc1-c1ccccc1Cl` [N-((1S)-1-(3-(2-chlorophenyl)-5-(trifluoromethyl)-2-quinoxalinyl)ethyl)-9H-purin-6-amine], the 50% inhibitory concentration (IC50) came out at 10.4 nM.

With `Clc1cccc2cc(CNc3ncnc4[nH]cnc34)c(-c3ccccn3)nc12` [N-((8-chloro-2-(2-pyridinyl)-3-quinolinyl)methyl)-9H-purin-6-amine], the IC50 turned out to be 34.1 nM.

For `C[C@H](Nc1ncnc2nc[nH]c12)c1cc2cccc(F)c2nc1-c1cc(F)cc(Cl)c1` [N-((1S)-1-(2-(3-chloro-5-fluorophenyl)-8-fluoro-3-quinolinyl)ethyl)-7H-purin-6-amine], the half-maximal inhibitory concentration (IC50) was found to be 8.09 nM.
